ChEMBL document CHEMBL4311957, “Recent advances in natural antifungal flavonoids and their derivatives” (Bioorg Med Chem Lett, 2019)
Converted amounts (≈) assume the structure as drawn.

Experiments:
[1] = tested on: Trichophyton rubrum; assay: Fungicidal activity against Trichophyton rubrum CCC 110 after 48 hrs; format: functional; conditions: CCC 110, 48 h
[2] = tested on: Aspergillus niger; assay: Fungicidal activity against Aspergillus niger ATCC 9029 after 48 hrs; format: functional; conditions: ATCC 9029, 48 h
[3] = tested on: Cryptococcus neoformans; assay: Fungicidal activity against Cryptococcus neoformans ATCC 32264 after 48 hrs; format: functional; conditions: ATCC 32264, 48 h
[4] = tested on: Saccharomyces cerevisiae; assay: Fungicidal activity against Saccharomyces cerevisiae ATCC 9763 after 48 hrs; format: functional; conditions: ATCC 9763, 48 h
[5] = tested on: Cryptococcus neoformans; assay: Fungicidal activity against Cryptococcus neoformans clinical isolate after 48 hrs; format: functional
[6] = tested on: Aspergillus fumigatus; assay: Fungicidal activity against Aspergillus fumigatus ATTC 26934 after 48 hrs; format: functional; conditions: ATTC 26934, 48 h
[7] = tested on: Aspergillus flavus; assay: Fungicidal activity against Aspergillus flavus ATCC 9170 after 48 hrs; format: functional; conditions: ATCC 9170, 48 h
[8] = tested on: Candida albicans; assay: Fungicidal activity against Candida albicans ATCC 10231 after 48 hrs; format: functional; conditions: ATCC 10231, 48 h
[9] = tested on: Trichophyton mentagrophytes; assay: Fungicidal activity against Trichophyton mentagrophytes ATCC 9972 after 48 hrs; format: functional; conditions: ATCC 9972, 48 h
[10] = tested on: Nannizzia gypsea; assay: Fungicidal activity against Microsporum gypseum CCC 115 after 48 hrs; format: functional; conditions: CCC 115, 48 h
[11] = tested on: Nakaseomyces glabratus; assay: Antifungal activity against Candida glabrata 493 by microdilution method; format: functional
[12] = tested on: Candida albicans; assay: Antifungal activity against Candida albicans 498 by microdilution method; format: functional
[13] = tested on: Cryptococcus neoformans; assay: Antifungal activity against Cryptococcus neoformans ATCC 32264 after 48 hrs by CLSI-based broth microdilution method; format: functional; conditions: ATCC 32264, 48 h
[14] = tested on: Nakaseomyces glabratus; assay: Antifungal activity against Candida glabrata 482 by microdilution method; format: functional
[15] = tested on: Trichophyton rubrum; assay: Antifungal activity against Trichophyton rubrum after 5 days; format: functional; conditions: 120 h
[16] = tested on: Pichia kudriavzevii; assay: Antifungal activity against Candida krusei 168 by microdilution method; format: functional
[17] = tested on: Nakaseomyces glabratus; assay: Antifungal activity against Candida glabrata 531 by microdilution method; format: functional
[18] = tested on: Candida albicans; assay: Antifungal activity against Candida albicans 53 by microdilution method; format: functional
[19] = tested on: Cryptococcus gattii; assay: Antifungal activity against Cryptococcus gattii after 72 hrs; format: functional, Cryptococcus gattii VGI
[20] = tested on: Candida albicans; assay: Antifungal activity against Candida albicans ATCC 10231 after 48 hrs by CLSI-based broth microdilution method; format: functional; conditions: ATCC 10231, 48 h
[21] = tested on: Candida albicans; assay: Antifungal activity against Candida albicans ATCC 10231 by microdilution method; format: functional
[22] = tested on: Saccharomyces cerevisiae; assay: Antifungal activity against Saccharomyces cerevisiae ATCC 9763 after 48 hrs by CLSI-based broth microdilution method; format: functional; conditions: ATCC 9763, 48 h
[23] = tested on: Candida tropicalis; assay: Antifungal activity against Candida tropicalis CCC 131-2000 after 48 hrs by CLSI-based broth microdilution method; format: functional; conditions: CCC 131-2000, 48 h
[24] = tested on: Nakaseomyces glabratus; assay: Antifungal activity against Candida glabrata 587 by microdilution method; format: functional
[25] = tested on: Nannizzia gypsea; assay: Antifungal activity against Microsporum gypseum after 5 days; format: functional; conditions: 120 h
[26] = tested on: Trichophyton mentagrophytes; assay: Antifungal activity against Trichophyton mentagrophytes after 5 days; format: functional; conditions: 120 h
[27] = tested on: Candida albicans; assay: Antifungal activity against Candida albicans 501 by microdilution method; format: functional
[28] = tested on: Candida parapsilosis; assay: Antifungal activity against Candida parapsilosis 96 by microdilution method; format: functional; conditions: Lodderomyces parapsilosis
[29] = tested on: Trichophyton tonsurans; assay: Antifungal activity against Trichophyton tonsurans after 5 days; format: functional; conditions: 120 h
[30] = tested on: Nakaseomyces glabratus; assay: Antifungal activity against Candida glabrata ATCC 90030; format: functional
[31] = tested on: Nakaseomyces glabratus; assay: Antifungal activity against Candida glabrata 507 by microdilution method; format: functional
[32] = tested on: Cryptococcus neoformans; assay: Antifungal activity against Cryptococcus neoformans after 72 hrs; format: functional
[33] = tested on: Candida tropicalis; assay: Antifungal activity against Candida tropicalis 166 by microdilution method; format: functional
[34] = tested on: Nakaseomyces glabratus; assay: Antifungal activity against Candida glabrata 510 by microdilution method; format: functional
[35] = tested on: Candida tropicalis; assay: Antifungal activity against FLC-resistant Candida tropicalis in presence of FLC; format: functional
[36] = tested on: Nakaseomyces glabratus; assay: Antifungal activity against Candida glabrata ATCC 90030 after 18 hrs by two-fold microdilution method; format: functional; conditions: ATCC 90030, 18 h
[37] = tested on: Candida albicans; assay: Antifungal activity against Candida albicans ATCC 90028 after 18 hrs by two-fold microdilution method; format: functional; conditions: ATCC 90028, 18 h
[38] = tested on: Pichia kudriavzevii; assay: Antifungal activity against Candida krusei ATCC 6258 after 18 hrs by two-fold microdilution method; format: functional; conditions: ATCC 6258, 18 h
[39] = tested on: Candida parapsilosis; assay: Antifungal activity against Candida parapsilosis ATCC 22019 after 18 hrs by two-fold microdilution method; format: functional; conditions: Lodderomyces parapsilosis, ATCC 22019, 18 h
[40] = tested on: Nakaseomyces glabratus; assay: Antifungal activity against Candida glabrata WT-5; format: functional
[41] = tested on: Trichophyton rubrum; assay: Antifungal activity against Trichophyton rubrum NBRC 5467 by microdilution method; format: functional
[42] = tested on: Trichophyton mentagrophytes; assay: Antifungal activity against Trichophyton mentagrophytes IFM 46027 by microdilution method; format: functional
[43] = tested on: Trichophyton rubrum; assay: Antifungal activity against Trichophyton rubrum; format: functional
[44] = tested on: Candida parapsilosis; assay: Antifungal activity against Candida parapsilosis ATCC 22014; format: functional; conditions: Lodderomyces parapsilosis
[45] = tested on: Aspergillus fumigatus; assay: Antifungal activity against Aspergillus fumigatus NBRC 4400 by microdilution method; format: functional
[46] = tested on: Candida parapsilosis; assay: Antifungal activity against Candida parapsilosis 90/2224; format: functional; conditions: Lodderomyces parapsilosis
[47] = tested on: Pichia kudriavzevii; assay: Antifungal activity against Candida krusei CK25; format: functional
[48] = tested on: Candida albicans; assay: Antifungal activity against Candida albicans NBRC 1385 by microdilution method; format: functional
[49] = tested on: Pichia kudriavzevii; assay: Antifungal activity against Candida krusei ATCC 6258; format: functional

## Cc1ccc(C(=O)/C=C/c2ccc(O)c(OCCCN(C)C)c2)cc1
[1]
  MFC: 62.5 µg/mL (≈ 184 µM)
[2]
  MFC: 62.5 µg/mL (≈ 184 µM)
[3]
  MFC: 62.5 µg/mL (≈ 184 µM)
[4]
  MFC: 62.5 µg/mL (≈ 184 µM)
[5]
  MFC: 62.5 µg/mL (≈ 184 µM)
[6]
  MFC: 62.5 µg/mL (≈ 184 µM)
[7]
  MFC: 62.5 µg/mL (≈ 184 µM)
[8]
  MFC: 62.5 µg/mL (≈ 184 µM)
[9]
  MFC: 62.5 µg/mL (≈ 184 µM)
[10]
  MFC: 62.5 µg/mL (≈ 184 µM)

## O=c1c(O)c(-c2cc(O)c(O)c(O)c2)oc2cc(O)cc(O)c12 [MYRICETIN]
[11]
  MIC: 3.9 to 15.7 µg/mL (≈ 12.3 to 49.3 µM)
[12]
  MIC: 16 to 64 µg/mL (≈ 50.3 to 201 µM)
[13]
  MIC: 31.2 µg/mL (≈ 98 µM)
[14]
  MIC: 3.9 to 15.7 µg/mL (≈ 12.3 to 49.3 µM)
[15]
  MIC: 4 to 128 µg/mL (≈ 12.6 to 402 µM)
[16]
  MIC: 64 µg/mL (≈ 201 µM)
[17]
  MIC: 3.9 to 15.7 µg/mL (≈ 12.3 to 49.3 µM)
[18]
  MIC: 16 to 64 µg/mL (≈ 50.3 to 201 µM)
[19]
  MIC: 128 µg/mL (≈ 402 µM)
[20]
  MIC: 31.2 µg/mL (≈ 98 µM)
[21]
  MIC: 16 to 64 µg/mL (≈ 50.3 to 201 µM)
[22]
  MIC: 31.2 µg/mL (≈ 98 µM)
[23]
  MIC: 31.2 µg/mL (≈ 98 µM)
[24]
  MIC: 3.9 to 15.7 µg/mL (≈ 12.3 to 49.3 µM)
[25]
  MIC: 4 to 128 µg/mL (≈ 12.6 to 402 µM)
[26]
  MIC: 4 to 128 µg/mL (≈ 12.6 to 402 µM)
[27]
  MIC: 16 to 64 µg/mL (≈ 50.3 to 201 µM)
[28]
  MIC: 16 µg/mL (≈ 50.3 µM)
[29]
  MIC: 4 to 128 µg/mL (≈ 12.6 to 402 µM)
[30]
  MIC: 6.79 µg/mL (≈ 21.3 µM)
[31]
  MIC: 3.9 to 15.7 µg/mL (≈ 12.3 to 49.3 µM)
[32]
  MIC: 8 to 128 µg/mL (≈ 25.1 to 402 µM)
[33]
  MIC: 64 µg/mL (≈ 201 µM)
[34]
  MIC: 3.9 to 15.7 µg/mL (≈ 12.3 to 49.3 µM)

## Oc1cc(O)c2c(c1)O[C@H](c1ccc(O)c(O)c1)[C@@H](O)C2 [CIANIDANOL]
[35]
  MIC: ≤ 16 µg/mL

## CC1(C)C=Cc2c(cc(O)c3c(=O)c(-c4ccc(O)cc4)coc23)O1 [DERRONE]
[36]
  MIC: 7.81 µg/mL (≈ 23.2 µM)
[37]
  MIC: 7.81 µg/mL (≈ 23.2 µM)
[38]
  MIC: 7.81 µg/mL (≈ 23.2 µM)
[39]
  MIC: 7.81 µg/mL (≈ 23.2 µM)

## O=c1cc(-c2ccc(O)c(O)c2)oc2cc(O)cc(O)c12 [LUTEOLIN]
[11]
  MIC: 3.9 to 7.8 µg/mL (≈ 13.6 to 27.2 µM)
[12]
  MIC: > 83 µg/mL
[40]
  MIC: 52.7 µg/mL (≈ 184 µM)
[41]
  MIC: 120 µM (≈ 34.3 µg/mL)
[14]
  MIC: 3.9 to 7.8 µg/mL (≈ 13.6 to 27.2 µM)
[42]
  MIC: 60 µM (≈ 17.2 µg/mL)
[17]
  MIC: 3.9 to 7.8 µg/mL (≈ 13.6 to 27.2 µM)
[43]
  MIC: 250 µg/mL (≈ 873 µM)
[44]
  MIC: 5.4 µg/mL (≈ 18.9 µM)
[18]
  MIC: > 83 µg/mL
[21]
  MIC: > 83 µg/mL
[45]
  MIC: 230 µM (≈ 65.8 µg/mL)
[24]
  MIC: 3.9 to 7.8 µg/mL (≈ 13.6 to 27.2 µM)
[27]
  MIC: > 83 µg/mL
[46]
  MIC: 5.4 µg/mL (≈ 18.9 µM)
[47]
  MIC: 2.7 µg/mL (≈ 9.43 µM)
[28]
  MIC: > 83 µg/mL
  MIC50: 13 to 104 µg/mL (≈ 45.4 to 363 µM)
[30]
  MIC: 52.7 µg/mL (≈ 184 µM)
[31]
  MIC: 3.9 to 7.8 µg/mL (≈ 13.6 to 27.2 µM)
[48]
  MIC: 30 µM (≈ 8.59 µg/mL)
[33]
  MIC: > 83 µg/mL
  MIC50: 13 to 104 µg/mL (≈ 45.4 to 363 µM)
[49]
  MIC: 2.7 µg/mL (≈ 9.43 µM)
[34]
  MIC: 3.9 to 7.8 µg/mL (≈ 13.6 to 27.2 µM)
